Test results as given in ChEMBL document CHEMBL5247613, “Design, synthesis and biological evaluation of a new class of Hsp90 inhibitors vibsanin C derivatives” (Eur J Med Chem, 2022).
Activity calls are given as the source filed them. No cut-off for these calls is given here.

What was measured:
[1] = test system: SMMC-7721; test: Antiproliferative activity against human SMMC-7721 cells assessed as reduction in cell viability incubated for 48 hrs by MTT assay; type: functional, cell-based; details: SMMC-7721, 48 h
[2] = Toxicity in Kunming mouse assessed as effect on liver at 5 to 500 mg/kg, ip administered as single dose by macroscopic autopsy analysis; type: organism-based; details: in vivo, dose 5-500 mg/kg
[3] = test system: H22; test: Antitumor activity against mouse H22 cells xenografted in Kunming mouse assessed as reduction in tumor weight at 100 mg/kg, ip administered for 14 days; type: functional; details: H22, 336 h, time 14 day
[4] = Inhibition of HSP90 in rabbit reticulocyte lysates incubated for 3 hrs by denatured luciferase refolding assay; type: subcellular, Oryctolagus cuniculus
[5] = Solubility of the compound in aqueous NMR buffer; type: physicochemical
[6] = Toxicity in Kunming mouse assessed as effect on physical appearance at 500 mg/kg, ip administered as single dose; type: organism-based; details: in vivo
[7] = test system: HL-60; test: Induction of apoptosis in human HL-60 cells assessed as necrotic cells at 10 uM by AnnexinV-FITC/PI staining based flow cytometry (reference value: 0.4%); type: functional
[8] = biological target: T1, Heat shock protein HSP90 (Homo sapiens) (UniProt P07900+P08238); test: Inhibition of HSP90 in human HL-60 cells assessed as increase in HSP27 protein expression incubated for 24 hrs by western blot analysis; type: cell-based; details: dose 1-10 µM
[9] = Toxicity in Kunming mouse assessed as effect on heart at 5 to 500 mg/kg, ip administered as single dose by macroscopic autopsy analysis; type: organism-based; details: in vivo, dose 5-500 mg/kg
[10] = test system: HL-60; test: Induction of apoptosis in human HL-60 cells assessed as increase in caspase-3 cleavage incubated for 24 hrs by western blot analysis; type: functional, cell-based; details: dose 1-10 µM
[11] = test system: HL-60; test: Induction of apoptosis in human HL-60 cells assessed as necrotic cells at 20 uM by AnnexinV-FITC/PI staining based flow cytometry (reference value: 0.4%); type: functional
[12] = test system: MCF7; test: Antiproliferative activity against human MCF7 cells assessed as reduction in cell viability incubated for 48 hrs by MTT assay; type: functional, cell-based; details: MCF7, 48 h
[13] = test system: HL-60; test: Induction of apoptosis in human HL-60 cells assessed as early apoptotic cells at 5 uM by AnnexinV-FITC/PI staining based flow cytometry (reference value: 1.33%); type: functional
[14] = Toxicity in ip dosed Kunming mouse administered as single dose; type: organism-based; details: in vivo
[15] = test system: HL-60; test: Induction of apoptosis in human HL-60 cells assessed as late apoptotic cells at 1 uM by AnnexinV-FITC/PI staining based flow cytometry (reference value: 8.57%); type: functional
[16] = test system: HL-60; test: Induction of apoptosis in human HL-60 cells assessed as early apoptotic cells at 20 uM by AnnexinV-FITC/PI staining based flow cytometry (reference value: 1.33%); type: functional
[17] = test system: SW480; test: Antiproliferative activity against human SW480 cells assessed as reduction in cell viability incubated for 48 hrs by MTT assay; type: functional, cell-based; details: SW480, 48 h
[18] = test system: HL-60; test: Induction of apoptosis in human HL-60 cells assessed as viable cells at 1 uM by AnnexinV-FITC/PI staining based flow cytometry (reference value: 89.7%); type: functional; details: read-out: Activity
[19] = test system: HL-60; test: Antiproliferative activity against human HL-60 cells assessed as reduction in cell viability incubated for 48 hrs by MTT assay; type: functional, cell-based; details: HL-60, 48 h
[20] = test system: HL-60; test: Induction of apoptosis in human HL-60 cells assessed as increase in Bax protein expression at 1 to 10 uM incubated for 24 hrs by western blot analysis; type: functional, cell-based; details: dose 1-10 µM
[21] = test system: HL-60; test: Induction of apoptosis in human HL-60 cells assessed as late apoptotic cells at 10 uM by AnnexinV-FITC/PI staining based flow cytometry (reference value: 8.57%); type: functional
[22] = test system: HL-60; test: Induction of apoptosis in human HL-60 cells assessed as necrotic cells at 5 uM by AnnexinV-FITC/PI staining based flow cytometry (reference value: 0.4%); type: functional
[23] = Toxicity in Kunming mouse assessed as injury at 500 mg/kg, ip administered as single dose; type: organism-based; details: in vivo
[24] = Toxicity in Kunming mouse assessed as effect on kidney at 5 to 500 mg/kg, ip administered as single dose by macroscopic autopsy analysis; type: organism-based; details: in vivo, dose 5-500 mg/kg
[25] = test system: HL-60; test: Induction of apoptosis in human HL-60 cells assessed as decrease in Bcl2 protein expression at 1 to 10 uM incubated for 24 hrs by western blot analysis; type: functional, cell-based; details: dose 1-10 µM
[26] = Toxicity in Kunming mouse assessed as effect on lung at 5 to 500 mg/kg, ip administered as single dose by macroscopic autopsy analysis; type: organism-based; details: in vivo, dose 5-500 mg/kg
[27] = Toxicity in Kunming mouse assessed as normal animal behaviour at 500 mg/kg, ip administered as single dose; type: organism-based; details: in vivo
[28] = test system: HL-60; test: Induction of apoptosis in human HL-60 cells assessed as necrotic cells at 1 uM by AnnexinV-FITC/PI staining based flow cytometry (reference value: 0.4%); type: functional
[29] = test system: H22; test: Antitumor activity against mouse H22 cells xenografted in Kunming mouse assessed as reduction in tumor volume at 100 mg/kg, ip administered for 14 days; type: functional; details: H22, 336 h, time 14 day
[30] = test system: HL-60; test: Induction of apoptosis in human HL-60 cells assessed as late apoptotic cells at 20 uM by AnnexinV-FITC/PI staining based flow cytometry (reference value: 8.57%); type: functional
[31] = biological target: T1, Heat shock protein HSP90 (Homo sapiens); test: Inhibition of HSP90 in human HL-60 cells assessed as decrease in CDK4 protein expression incubated for 24 hrs by western blot analysis; type: cell-based; details: dose 1-10 µM
[32] = test system: HL-60; test: Induction of apoptosis in human HL-60 cells assessed as viable cells at 5 uM by AnnexinV-FITC/PI staining based flow cytometry (reference value: 89.7%); type: functional; details: read-out: Activity
[33] = test system: HL-60; test: Induction of apoptosis in human HL-60 cells assessed as increase in PARP cleavage incubated for 24 hrs by western blot analysis; type: functional, cell-based; details: dose 1-10 µM
[34] = test system: HL-60; test: Induction of apoptosis in human HL-60 cells assessed as viable cells at 10 uM by AnnexinV-FITC/PI staining based flow cytometry (reference value: 89.7%); type: functional; details: read-out: Activity
[35] = Toxicity in Kunming mouse assessed as effect on sign of illness at 500 mg/kg, ip administered as single dose; type: organism-based; details: in vivo
[36] = Toxicity in Kunming mouse assessed as effect on feeding habits at 500 mg/kg, ip administered as single dose; type: organism-based; details: in vivo
[37] = test system: HL-60; test: Induction of apoptosis in human HL-60 cells assessed as viable cells at 20 uM by AnnexinV-FITC/PI staining based flow cytometry (reference value: 89.7%); type: functional; details: read-out: Activity
[38] = test system: A549; test: Antiproliferative activity against human A549 cells assessed as reduction in cell viability incubated for 48 hrs by MTT assay; type: functional, cell-based; details: A549, 48 h
[39] = Toxicity in Kunming mouse assessed as effect on spleen at 5 to 500 mg/kg, ip administered as single dose by macroscopic autopsy analysis; type: organism-based; details: in vivo, dose 5-500 mg/kg
[40] = Toxicity in Kunming mouse assessed as pain at 500 mg/kg, ip administered as single dose; type: organism-based; details: in vivo
[41] = test system: HL-60; test: Induction of apoptosis in human HL-60 cells assessed as early apoptotic cells at 1 uM by AnnexinV-FITC/PI staining based flow cytometry (reference value: 1.33%); type: functional
[42] = test system: HL-60; test: Induction of apoptosis in human HL-60 cells assessed as late apoptotic cells at 5 uM by AnnexinV-FITC/PI staining based flow cytometry (reference value: 8.57%); type: functional
[43] = test system: HL-60; test: Induction of apoptosis in human HL-60 cells assessed as early apoptotic cells at 10 uM by AnnexinV-FITC/PI staining based flow cytometry (reference value: 1.33%); type: functional
[44] = Toxicity in Kunming mouse xenografted with mouse H22 cells assessed as body weight loss at 100 mg/kg, ip administered for 14 days; type: organism-based; details: in vivo, 336 h, time 14 day
[45] = test system: Reticulocyte; test: Inhibition of HSP90 in rabbit reticulocyte lysates at 10 uM incubated for 3 hrs by denatured luciferase refolding assay; type: subcellular; details: Oryctolagus cuniculus

CC(C)=CCC[C@@]1(C)CC=C(CF)c2oc(C)cc2[C@@H]1/C=C/OC(=O)C=C(C)C
IC50 [1]: 11.9 µM
Activity [2]: Non-Toxic
inhibition in vivo at 100 mg/kg [3]: 42.4%
IC50 [4]: 0.39 µM
solubility [5]: Insoluble
Activity [6]: Non-Toxic
Activity [7]: 6.29%
inhibition [8]: Dose-Dependent Effect
Activity [9]: Non-Toxic
Activity [10]: Dose-Dependent Effect
Activity [11]: 3.45%
IC50 [12]: 17.7 µM
Activity [13]: 2.87%
LD50 [14]: > 500 mg/kg
Activity [15]: 11%
Activity [16]: 3.78%
IC50 [17]: 20 µM
viability at 1 µM [18]: 87.1%
IC50 [19]: 3.69 µM
Activity [20]: Active
Activity [21]: 50.4%
Activity [22]: 0.22%
Activity [23]: Non-Toxic
Activity [24]: Non-Toxic
Activity [25]: Active
Activity [26]: Non-Toxic
Activity [27]: Non-Toxic
Activity [28]: 0.27%
inhibition in vivo at 100 mg/kg [29]: 48.4%
Activity [30]: 73.3%
inhibition [31]: Dose-Dependent Effect
viability at 5 µM [32]: 83%
Activity [33]: Dose-Dependent Effect
viability at 10 µM [34]: 38.4%
Activity [35]: Non-Toxic
Activity [36]: Non-Toxic
viability at 20 µM [37]: 19.5%
IC50 [38]: > 40 µM
Activity [39]: Non-Toxic
Activity [40]: Non-Toxic
Activity [41]: 1.57%
Activity [42]: 12.8%
Activity [43]: 4.98%
Activity [44]: Non-Toxic
inhibition [45]: 72.2%
